In PubChem BioAssay (NCI):
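The compound was tested at five concentrations on cells cultured in 96-well plates, with a 48-hour exposure period. TGI: concentration producing complete growth inhibition.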

Legend:
Assay in all cases: DTP human tumour cell line panel, 48 h
CAKI-1 renal = system: CAKI-1 renal
EKVX NSCLC = system: EKVX NSCLC
HCT-15 colon = system: HCT-15 colon
HL-60(TB) leukemia = system: HL-60(TB) leukemia
HOP-62 NSCLC = system: HOP-62 NSCLC
HT29 colon = system: HT29 colon
K-562 leukemia = system: K-562 leukemia
MDA-MB-231 breast = system: MDA-MB-231 breast
MOLT-4 leukemia = system: MOLT-4 leukemia
OVCAR-3 ovarian = system: OVCAR-3 ovarian
OVCAR-4 ovarian = system: OVCAR-4 ovarian
RPMI-8226 leukemia = system: RPMI-8226 leukemia
SF-268 CNS = system: SF-268 CNS
SF-539 CNS = system: SF-539 CNS
SK-MEL-28 melanoma = system: SK-MEL-28 melanoma
SR leukemia = system: SR leukemia
SW-620 colon = system: SW-620 colon
U251 CNS = system: U251 CNS

## Cc1ccnc2[nH]c(-c3ccc(F)cc3)cc(=O)c12
CAKI-1 renal
  TGI: > 100 µM
EKVX NSCLC
  TGI: > 100 µM
HCT-15 colon
  TGI: > 100 µM
HL-60(TB) leukemia
  TGI: 38.5 µM
HOP-62 NSCLC
  TGI: > 100 µM
HT29 colon
  TGI: > 100 µM
K-562 leukemia
  TGI: > 100 µM
MDA-MB-231 breast
  TGI: > 100 µM
MOLT-4 leukemia
  TGI: > 100 µM
OVCAR-3 ovarian
  TGI: > 100 µM
OVCAR-4 ovarian
  TGI: > 100 µM
RPMI-8226 leukemia
  TGI: > 100 µM
SF-268 CNS
  TGI: > 100 µM
SF-539 CNS
  TGI: > 100 µM
SK-MEL-28 melanoma
  TGI: > 100 µM
SR leukemia
  TGI: 25.9 µM
SW-620 colon
  TGI: > 100 µM
U251 CNS
  TGI: > 100 µM

## CCS(=O)(=O)CCn1c(=O)c2c(ncn2C)n(C)c1=O
CAKI-1 renal
  TGI: > 100 µM
EKVX NSCLC
  TGI: > 100 µM
HCT-15 colon
  TGI: > 100 µM
HL-60(TB) leukemia
  TGI: > 100 µM
HOP-62 NSCLC
  TGI: > 100 µM
HT29 colon
  TGI: > 100 µM
K-562 leukemia
  TGI: > 100 µM
MDA-MB-231 breast
  TGI: > 100 µM
MOLT-4 leukemia
  TGI: > 100 µM
OVCAR-3 ovarian
  TGI: > 100 µM
OVCAR-4 ovarian
  TGI: > 100 µM
RPMI-8226 leukemia
  TGI: > 100 µM
SF-268 CNS
  TGI: > 100 µM
SF-539 CNS
  TGI: > 100 µM
SK-MEL-28 melanoma
  TGI: > 100 µM
SR leukemia
  TGI: > 100 µM
SW-620 colon
  TGI: > 100 µM
U251 CNS
  TGI: > 100 µM

## CSc1nc(C)c(CCOC(C)=O)c(Cl)n1
CAKI-1 renal
  TGI: > 100 µM
EKVX NSCLC
  TGI: > 100 µM
HCT-15 colon
  TGI: > 100 µM
HL-60(TB) leukemia
  TGI: > 100 µM
HOP-62 NSCLC
  TGI: > 100 µM
HT29 colon
  TGI: > 100 µM
K-562 leukemia
  TGI: > 100 µM
MDA-MB-231 breast
  TGI: > 100 µM
MOLT-4 leukemia
  TGI: > 100 µM
OVCAR-3 ovarian
  TGI: > 100 µM
OVCAR-4 ovarian
  TGI: > 100 µM
RPMI-8226 leukemia
  TGI: > 100 µM
SF-268 CNS
  TGI: > 100 µM
SF-539 CNS
  TGI: > 100 µM
SK-MEL-28 melanoma
  TGI: > 100 µM
SR leukemia
  TGI: > 100 µM
SW-620 colon
  TGI: > 100 µM
U251 CNS
  TGI: > 100 µM

## O=C1/C(=C/c2ccc(Oc3ccccc3)cc2)N=C(c2ccccc2)N1c1ccc(S(=O)(=O)Nc2nccs2)cc1
CAKI-1 renal
  TGI: > 100 µM
EKVX NSCLC
  TGI: > 100 µM
HCT-15 colon
  TGI: 70.1 µM
HL-60(TB) leukemia
  TGI: 34.9 µM
HOP-62 NSCLC
  TGI: 79.4 µM
HT29 colon
  TGI: 72.6 µM
K-562 leukemia
  TGI: > 100 µM
MDA-MB-231 breast
  TGI: > 100 µM
MOLT-4 leukemia
  TGI: 71.2 µM
OVCAR-3 ovarian
  TGI: > 100 µM
OVCAR-4 ovarian
  TGI: > 100 µM
RPMI-8226 leukemia
  TGI: 32.3 µM
SF-268 CNS
  TGI: > 100 µM
SF-539 CNS
  TGI: > 100 µM
SK-MEL-28 melanoma
  TGI: > 100 µM
SR leukemia
  TGI: 25 µM
SW-620 colon
  TGI: > 100 µM
U251 CNS
  TGI: > 100 µM
